Assay results from patent publication US9828333B2, “Compounds for the treatment of influenza” (CHRISTIAN-ALBRECHTS-UNIVERSITAT ZU KIEL, priority 2011, dated 2017).

Tests used:
[1] = molecular target: neuraminidase of influenza A virus A/342/2009 (H1N1, oseltamivir resistant) (UniProt P03468); assay type: biochemical
[2] = system: influenza A virus A/342/2009 (H1N1; oseltamivir-resistant); assay type: cell-based

SMILES | 50% inhibitory concentration higher compared to zanamivir [1] [fold] | 90% inhibitory concentration, A/342/2009 [2] | 95% inhibitory concentration (values in parentheses), A/342/2009 [2]
CCC(CC)O[C@@H]1C=C(C(=O)O)C[C@H](NC(C)=N)[C@H]1NC(C)=O [Compound 3] | 50 | 16.0 (22.3) μM | 16.0 (22.3) μM
CCOC(=O)C1=C[C@@H](OC(CC)CC)[C@H](NC(C)=O)[C@@H](N)C1 [Oseltamivir, (3R,4R,5S)-4-acetamido-5-amino-3-(1-ethylpropoxy)cyclohex-1-en-1-carboxylic acid ethyl ester, reference compound] | – | resistant | –
CCC(CC)O[C@@H]1C=C(C(=O)O)C[C@H](NC(=N)N)[C@H]1NC(C)=O [Compound 9, (3R,4R,5S)-4-acetamido-5-(N-guanidino)-3-(1-ethylpropoxy)cyclohex-1-en-1-carboxylic acid] | – | 3.0 (14.2) μM | 3.0 (14.2) μM
